Reference: ChEMBL document CHEMBL1131484, “Human growth hormone-releasing hormone hGHRH(1-29)-NH2: systematic structure-activity relationship studies” (J Med Chem, 1998)
“And” between values parts separate entries of the source, which are not always exact repeats. Identical values can stand only once. Bridge positions count the residues as written; N and C are the ends. Square brackets hold non-standard residues; d marks the D form. Peptide text beside a SMILES is read from it. αMeY = C[C@](N)(Cc1ccc(O)cc1)C(=O)O

Molecular target: T1, Growth hormone-releasing hormone receptor (Rattus norvegicus) (UniProt Q02644)
T1 sequence (whole entry): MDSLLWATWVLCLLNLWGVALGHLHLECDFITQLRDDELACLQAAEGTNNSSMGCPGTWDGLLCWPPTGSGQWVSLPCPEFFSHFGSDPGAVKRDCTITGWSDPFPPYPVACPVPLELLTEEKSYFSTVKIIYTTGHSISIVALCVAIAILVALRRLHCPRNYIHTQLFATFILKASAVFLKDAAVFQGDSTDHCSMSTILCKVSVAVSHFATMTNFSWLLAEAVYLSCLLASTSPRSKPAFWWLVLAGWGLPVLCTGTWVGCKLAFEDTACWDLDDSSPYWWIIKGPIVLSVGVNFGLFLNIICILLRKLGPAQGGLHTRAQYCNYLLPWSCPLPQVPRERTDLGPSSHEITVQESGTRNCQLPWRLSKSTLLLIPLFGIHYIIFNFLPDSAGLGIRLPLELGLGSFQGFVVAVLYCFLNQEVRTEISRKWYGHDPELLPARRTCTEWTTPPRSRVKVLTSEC
Experiment: Potency for growth hormone releasing hormone receptor (GHRFR) relative to human GHRH(1-40)OH- in the rat pituitary cell culture assay
Assay type: functional, cell-based
Conditions: Pituitary gland cell

SMILES | Relative potency
CCCC[C@H](NC(=O)[C@@H](NC(=O)[C@H](CC(=O)O)NC(=O)[C@H](CCC(N)=O)NC(=O)[C@H](CC(C)C)NC(=O)[C@H](CC(C)C)NC(=O)[C@H](CCCCN)NC(=O)[C@H](CCCN=C(N)N)NC(=O)[C@H](C)NC(=O)[C@H](CO)NC(=O)[C@H](CC(C)C)NC(=O)[C@H](CCC(N)=O)NC(=O)CNC(=O)[C@H](CC(C)C)NC(=O)[C@@H](NC(=O)[C@H](CCCCN)NC(=O)[C@H](CCCN=C(N)N)NC(=O)[C@H](Cc1ccc(O)cc1)NC(=O)[C@H](CO)NC(=O)[C@H](CC(N)=O)NC(=O)[C@@H](NC(=O)[C@H](Cc1ccccc1)NC(=O)[C@@H](NC(=O)[C@H](C)NC(=O)[C@H](CC(=O)O)NC(=O)[C@H](C)NC(=O)[C@@H](N)Cc1ccc(O)cc1)[C@@H](C)CC)[C@@H](C)O)C(C)C)[C@@H](C)CC)C(=O)N[C@@H](CO)C(=O)N[C@@H](CCCN=C(N)N)C(N)=O | 2.38
CC[C@@H](C)[C@@H](NC(=O)[C@@H](C)NC(=O)[C@@H](CC(=O)O)NC(=O)[C@@H](C)NC(=O)[C@H](N)Cc1ccc(O)cc1)C(=O)N[C@H](Cc1ccccc1)C(=O)N[C@@H](C(=O)N[C@H](CC(N)=O)C(=O)N[C@H](CO)C(=O)N[C@H]1CCC(=O)NCCCC[C@H](C(=O)N[C@@H](CC(C)C)C(=O)NCC(=O)N[C@H](CCC(N)=O)C(=O)N[C@H](CC(C)C)C(=O)N[C@H](CO)C(=O)N[C@H](C)C(=O)N[C@H](CCCN=C(N)N)C(=O)N[C@H](CCCCN)C(=O)N[C@H](CC(C)C)C(=O)N[C@H](CC(C)C)C(=O)N[C@H](CCC(N)=O)C(=O)N[C@H](CC(=O)O)C(=O)N[C@@H](C(=O)N[C@H](CCSC)C(=O)N[C@H](CO)C(=O)N[C@H](CCCN=C(N)N)C(N)=O)[C@H](C)CC)NC(=O)[C@@H](CCCCN)NC(=O)[C@H](CCCN=C(N)N)NC1=O)[C@H](C)O | 0.088
CC[C@H](C)[C@H](NC(=O)[C@H](C)NC(=O)[C@H](CC(=O)O)NC(=O)[C@H](C)NC(=O)[C@@H](N)Cc1ccc(O)cc1)C(=O)N[C@@H](Cc1ccccc1)C(=O)N[C@H](C(=O)N[C@@H](CC(N)=O)C(=O)N[C@@H](CO)C(=O)N[C@@H](Cc1ccc(O)cc1)C(=O)N[C@@H](CCCN=C(N)N)C(=O)N[C@@H](CCCCN)C(=O)N[C@H](C(=O)N[C@@H](CC(C)C)C(=O)NCC(=O)N[C@@H](CCC(N)=O)C(=O)N[C@@H]1CCC(=O)NCCCC[C@@H](C(=O)N[C@H](CCCCN)C(=O)N[C@@H](CC(C)C)C(=O)N[C@@H](CC(C)C)C(=O)N[C@@H](CCC(N)=O)C(=O)N[C@@H](CC(=O)O)C(=O)N[C@H](C(=O)N[C@@H](CCSC)C(=O)N[C@@H](CO)C(=O)N[C@@H](CCCN=C(N)N)C(N)=O)[C@@H](C)CC)NC(=O)[C@H](C)NC(=O)[C@@H](CO)NC1=O)C(C)C)[C@@H](C)O | 0.23
CC[C@H](C)[C@H](NC(=O)[C@H](C)NC(=O)[C@H](CC(=O)O)NC(=O)[C@H](C)NC(=O)[C@@H](N)Cc1ccc(O)cc1)C(=O)N[C@@H](Cc1ccccc1)C(=O)N[C@H](C(=O)N[C@@H](CC(N)=O)C(=O)N[C@@H](CO)C(=O)N[C@@H](Cc1ccc(O)cc1)C(=O)N[C@@H](CCCN=C(N)N)C(=O)N[C@@H](CCCCN)C(=O)N[C@H](C(=O)N[C@H]1CCC(=O)NCCCC[C@@H](C(=O)N[C@@H](CO)C(=O)N[C@@H](C)C(=O)N[C@@H](CCCN=C(N)N)C(=O)N[C@@H](CCCCN)C(=O)N[C@@H](CC(C)C)C(=O)N[C@@H](CC(C)C)C(=O)N[C@@H](CCC(N)=O)C(=O)N[C@@H](CC(=O)O)C(=O)N[C@H](C(=O)N[C@@H](CCSC)C(=O)N[C@@H](CO)C(=O)N[C@@H](CCCN=C(N)N)C(N)=O)[C@@H](C)CC)NC(=O)[C@H](CCC(N)=O)NC(=O)CNC1=O)C(C)C)[C@@H](C)O (H-YADAIFTNSYRKVEGQKSARKLLQDIMSR-NH2; lactam 14-17) | 0.026
CC[C@H](C)[C@H](NC(=O)[C@H](C)NC(=O)[C@H](CC(=O)O)NC(=O)[C@H](C)NC(=O)[C@@](C)(N)Cc1ccc(O)cc1)C(=O)N[C@@H](Cc1ccccc1)C(=O)N[C@H](C(=O)N[C@@H](C)C(=O)N[C@@H](C)C(=O)N[C@@H](Cc1ccc(O)cc1)C(=O)N[C@@H](CCCN=C(N)N)C(=O)N[C@@H](CCCCN)C(=O)N[C@H](C(=O)N[C@@H](CC(C)C)C(=O)N[C@@H](C)C(=O)N[C@@H](CCC(N)=O)C(=O)N[C@@H](CC(C)C)C(=O)N[C@@H](CO)C(=O)N[C@@H](C)C(=O)N[C@@H](CCCN=C(N)N)C(=O)N[C@@H](CCCCN)C(=O)N[C@@H](C)C(=O)N[C@@H](CC(C)C)C(=O)N[C@@H](CCC(N)=O)C(=O)N[C@@H](CC(=O)O)C(=O)N[C@H](C(=O)N[C@@H](CCSC)C(=O)N[C@@H](C)C(=O)N[C@@H](CCCN=C(N)N)C(N)=O)[C@@H](C)CC)C(C)C)[C@@H](C)O (H-[αMeY]ADAIFTAAYRKVLAQLSARKALQDIMAR-NH2) | 11.2

Further lines, results first:

Relative potency | SMILES
1.1 | CCCC[C@H]1NC(=O)[C@H]([C@@H](C)CC)NC(=O)[C@@H](NC(=O)[C@H](Cc2c[nH]cn2)NC(=O)[C@H](CC(C)C)NC(=O)[C@H](CC(C)C)NC(=O)[C@H](CCCCN)NC(=O)[C@H](CCCN=C(N)N)NC(=O)[C@H](Cc2ccccc2)NC(=O)[C@@H](NC(=O)[C@H](CC(C)C)NC(=O)[C@H](CCC(N)=O)NC(=O)[C@H](C)NC(=O)[C@H](CC(C)C)NC(=O)[C@@H](NC(=O)[C@H](CCCN=C(N)N)NC(=O)[C@H](CCCN=C(N)N)NC(=O)[C@H](Cc2ccc(O)cc2)NC(=O)[C@H](CO)NC(=O)[C@H](CO)NC(=O)[C@@H](NC(=O)[C@H](Cc2ccccc2)NC(=O)[C@@H](NC(=O)[C@H](C)NC(=O)[C@H](CC(=O)O)NC(=O)[C@H](C)NC(=O)[C@@](C)(N)Cc2c[nH]cn2)[C@@H](C)CC)[C@@H](C)O)[C@@H](C)CC)[C@@H](C)CC)CSSC[C@H](C(N)=O)NC(=O)[C@H](CC(N)=O)NC1=O
1.9 and 4.4 | CCCC[C@H]1NC(=O)[C@H]([C@@H](C)CC)NC(=O)[C@H](NC(=O)[C@H](Cc2c[nH]cn2)NC(=O)[C@H](CC(C)C)NC(=O)[C@H](CC(C)C)NC(=O)[C@H](CCCCN)NC(=O)[C@H](CCCN=C(N)N)NC(=O)[C@H](Cc2ccccc2)NC(=O)[C@@H](NC(=O)[C@H](CC(C)C)NC(=O)[C@H](CCC(N)=O)NC(=O)[C@H](C)NC(=O)[C@H](CC(C)C)NC(=O)[C@@H](NC(=O)[C@H](CCCN=C(N)N)NC(=O)[C@H](CCCN=C(N)N)NC(=O)[C@H](Cc2ccc(O)cc2)NC(=O)[C@H](CO)NC(=O)[C@H](CO)NC(=O)[C@@H](NC(=O)[C@H](Cc2ccccc2)NC(=O)[C@@H](NC(=O)[C@H](C)NC(=O)[C@H](CC(=O)O)NC(=O)[C@H](C)NC(=O)[C@@](C)(N)Cc2c[nH]cn2)[C@@H](C)CC)[C@@H](C)O)[C@@H](C)CC)[C@@H](C)CC)CSSC[C@@H](C(N)=O)NC(=O)[C@H](CC(N)=O)NC1=O
1.5 | CCCC[C@H]1NC(=O)[C@H]([C@@H](C)CC)NC(=O)[C@H](NC(=O)[C@H](Cc2c[nH]cn2)NC(=O)[C@H](CC(C)C)NC(=O)[C@H](CC(C)C)NC(=O)[C@H](CCCCN)NC(=O)[C@H](CCCN=C(N)N)NC(=O)[C@H](Cc2ccccc2)NC(=O)[C@@H](NC(=O)[C@H](CC(C)C)NC(=O)[C@H](CCC(N)=O)NC(=O)[C@H](C)NC(=O)[C@H](CC(C)C)NC(=O)[C@@H](NC(=O)[C@H](CCCN=C(N)N)NC(=O)[C@H](CCCN=C(N)N)NC(=O)[C@H](Cc2ccc(O)cc2)NC(=O)[C@H](CO)NC(=O)[C@H](CO)NC(=O)[C@@H](NC(=O)[C@H](Cc2ccccc2)NC(=O)[C@@H](NC(=O)[C@H](C)NC(=O)[C@H](CC(=O)O)NC(=O)[C@H](C)NC(=O)[C@@](C)(N)Cc2c[nH]cn2)[C@@H](C)CC)[C@@H](C)O)[C@@H](C)CC)[C@@H](C)CC)CSSC[C@H](C(N)=O)NC(=O)[C@H](CC(N)=O)NC1=O
1.3 | CC[C@H](C)[C@H](NC(=O)[C@H](C)NC(=O)[C@H](CC(=O)O)NC(=O)[C@H](C)NC(=O)[C@@H](N)Cc1ccc(O)cc1)C(=O)N[C@@H](Cc1ccccc1)C(=O)N[C@H](C(=O)N[C@@H](CC(N)=O)C(=O)N[C@@H](CO)C(=O)N[C@@H](Cc1ccc(O)cc1)C(=O)N[C@@H](CCCN=C(N)N)C(=O)N[C@@H](CCCCN)C(=O)N[C@H](C(=O)N[C@@H](CC(C)C)C(=O)NCC(=O)N[C@@H](CCC(N)=O)C(=O)N[C@@H](CC(C)C)C(=O)N[C@@H](CO)C(=O)N[C@@H](C)C(=O)N[C@H](CCCN=C(N)N)C(=O)N[C@H](CCCCN)C(=O)N[C@H](CC(C)C)C(=O)N[C@H](CC(C)C)C(=O)N[C@@H]1CCC(=O)NCCCC[C@@H](C(=O)N[C@@H](CO)C(=O)N[C@@H](CCCN=C(N)N)C(N)=O)NC(=O)[C@H]([C@@H](C)CC)NC(=O)[C@@H](CC(=O)O)NC1=O)C(C)C)[C@@H](C)O
5.3 and 8.8 | CC[C@H](C)[C@H](NC(=O)[C@H](C)NC(=O)[C@H](CC(=O)O)NC(=O)[C@H](C)NC(=O)[C@@H](N)Cc1ccc(O)cc1)C(=O)N[C@@H](Cc1ccccc1)C(=O)N[C@H](C(=O)N[C@@H](CC(N)=O)C(=O)N[C@@H](CO)C(=O)N[C@@H](Cc1ccc(O)cc1)C(=O)N[C@@H](CCCN=C(N)N)C(=O)N[C@@H](CCCCN)C(=O)N[C@H](C(=O)N[C@@H](CC(C)C)C(=O)NCC(=O)N[C@H](CCC(N)=O)C(=O)N[C@H](CC(C)C)C(=O)N[C@H](CO)C(=O)N[C@H](C)C(=O)N[C@H](CCCN=C(N)N)C(=O)N[C@H](CCCCN)C(=O)N[C@@H]1CCC(=O)NCCCC[C@@H](C(=O)N[C@H](C(=O)N[C@@H](CCSC)C(=O)N[C@@H](CO)C(=O)N[C@@H](CCCN=C(N)N)C(N)=O)[C@@H](C)CC)NC(=O)[C@H](CCC(N)=O)NC(=O)[C@@H](CC(C)C)NC1=O)C(C)C)[C@@H](C)O
